According to patent publication US20230302131A1, “MPC INHIBITION FOR PRODUCING T-CELLS WITH A MEMORY PHENOTYPE” (UNIVERSITÉ DE LAUSANNE, priority 2020, published 2023):

Assays:
[1] = system: OT1 CD8 T cells; test: ATAC sequencing of OT1 CD8 T cells; type: cell-based, mouse; settings: ATAC-seq after 3 days of culture; vs DMSO
Text: Mechanistically, it was hypothesized by the inventors that epigenetic processes might underlie the observed long-term memory phenotype and anti-tumor activity upon metabolic intervention with MPCi. […] Since acetyl-CoA is the acetyl donor for the acetylation of proteins, amongst which also histones, histone post-translational modifications were examined that are known to make chromatin accessible to transcription factors, a characteristic of memory T cells. […] These are marks known to open chromatin and make it accessible for transcription factor docking. […] Amongst those were Sell, Tcf7 and Ccr7, thereby correlating accessible chromatin with increased mRNA copies (FIG. 3E and see above).
After 3 days of OT1 CD8 T cell culture, 5×10^4 cells were collected and transposed as described before (Buenrostro et al, Transposition of native chromatin for multimodal regulatory analysis and personal epigenomics. Nat Methods. 2013 December; 10(12): 1213-1218.). Amplified transposed fragments were sequenced on an Illumina HiSeq platform.
Computations of the analysis were performed at the Vital-IT Center for high-performance computing of the SIB Swiss Institute of Bioinformatics. Sequencing reads contained in fastq files were aligned to the Mouse mm10 reference genome using Bowtie2 v.2.3.4.1, and alignment files were manipulated with samtools v.1.8. Peak calling was performed with Macs2 v.2.1.1. […]

[2] = system: B16 melanoma tumors expressing HER2; test: HER2-CAR T cell production with UK5099 and adoptive transfer into mice with B16 tumors expressing HER2; type: in vivo, mouse
Method: For each retroviral preparation, 8×10^6 Phoenix ECO cells (ATCC, CRL-3214) were plated in a T150 tissue culture flask in RPMI medium supplemented with 10% FCS, 10 mM HEPES and 50 U/ml Penicillin-Streptomycin. On the next day, cells were transfected with 21 μg of the retroviral construct with Turbofect transfection reagent (Thermo Fischer Scientific), according to the manufacturer protocol. The medium was changed daily and collected at 48 h and 72 h post transfection. 48 h and 72 h virus supernatants were pooled and sedimented at 22000rcf for 2 h at 4° C. Finally, retrovirus pellets were resuspended in 2 ml of full RPMI medium and divided in 8 aliquots of 250 μl each, which were snap-frozen on dry ice and stored at −80° C.
Spleens from wild type CD45.1.2 mice were smashed on a 70 µm cell strainer. CD8 T cells were purified using the EasySep™ Mouse CD8+ T Cell Isolation Kit (StemCell) according to the manufacturer protocol. 0.5×10^6 CD8 T cells were plated in 48 well plates in 0.5 ml of complete RPMI 1640 medium supplemented with 10% FCS, antibiotics and 50 IU/ml of recombinant human IL-2, and exposed to either DMSO or 20 μM UK5099. Mouse T-cells were activated with Activator CD3/CD28 Dynabeads (Gibco) at a ratio of 2 beads per cell. Retroviral infection was conducted at 37° C. for 24 h. Untreated 48-well plates were coated for 24 h with […] of recombinant human fibronectin (Takara Clontech) at 4° C., followed by PBS 2% BSA for 30 min at RT and finally washed with PBS. One aliquot of concentrated retroviruses was plated in each fibronectin-coated 48-well plates and centrifuged for 90 min at 2000rcf and 32° C. Then, 0.5×10^6 of 24 h-activated CD8 T cells were added on top of the viruses and spun for 10 min at 400rcf and 32° C. On day 3, the medium was replaced with 10 IU/ml recombinant human IL-2, 10 ng/ml recombinant human IL-7 and 10 ng/ml recombinant human IL-15, containing either DMSO or 20 μM UK5099. Cells were then split every second day.
CD45.2 C57BL/6 mice were engrafted subcutaneously with 4×10^5 B16F10 tumors modified to express HER2. Six days later, mice were lymphodepleted with 100 mg/kg cyclophosphamide (Sigma Aldrich, C7397) injected i.p., and homogeneous groups were constituted with regard to tumor volume. T cells (5×10^6) were adoptively transferred i.v. on the next day. Tumor volumes were measured three times a week with a caliper and calculated using the formula: V=π×[d2×D]/6, where d is the minor tumor axis and D is the major tumor axis. Tumors were collected and separated from skin. Single cell suspensions were obtained with the Mouse Tumor Dissociation Kit (Miltenyi, 130-096-730) according to the manufacturer protocol. Spleen and draining lymph node were smashed on a 70 µm cell strainer. Single cell suspensions were stained with antibodies before flow cytometry analysis.
Polyclonal CD8 T cells from wild type mice were activated in the presence of DMSO or 20 μM UK5099 and then retrovirally transduced with a control blue fluorescent protein-expressing retroviral construct (BFP) or with HER2-CAR (FIG. 6A). […] More UK5099-HER2CAR T cells were engrafted in the tumor-draining lymph nodes, while CAR T cell numbers in the spleen were similar (FIGS. 6C and 6D). […] As in the spleen, more tumor-infiltrating UK5099-treated CAR T cells expressed TCF1 (FIG. 6G). […] Finally, fewer UK5099-treated CAR T cells were expressing the inhibitory molecules PD1 and TIM3, indicating a less exhausted phenotype (FIG. 6J).

[3] = 20 μM during production, vs DMSO
[4] = co-expression of TCF1 with PD1, vs DMSO

N#CC(=Cc1cn(-c2ccccc2)c2ccccc12)C(=O)O [UK5099, 2-cyano-3-(1-phenyl-1H-indol-3-yl)-2-propenoic acid]
genes associated with more accessible chromatin [1]: 981 genes | CAR T cell numbers in the spleen [2, 3]: similar | HER2CAR T cells engrafted in the tumor-draining lymph nodes [2, 3]: More | percentage of splenic HER2CAR T cells expressing TCF1 [2, 3]: higher percentage | tumor growth after HER2CAR T cell ACT ([2]; CAR T cells produced with 20 μM UK5099, 5×10^6 T cells i.v.): significantly suppress tumor growth | progenitor exhausted T cells (TCF1-positive) among CAR T cells in the tumor [2, 4]: more | terminally differentiated exhausted T cells (TCF1-negative) among CAR T cells in the tumor [2, 4]: less | CAR T cells expressing the inhibitory molecules PD1 and TIM3 ([2]; in the tumor, vs DMSO): fewer | CAR T cells in tumors ([2]; per mg of tumor, vs DMSO): significantly more | tumor-infiltrating CAR T cells expressing TCF1 ([2]; vs DMSO): more
